# Measured values published in ChEMBL document CHEMBL1131189, “Conformationally restricted analogues of 1N,12N-bisethylspermine: synthesis and growth inhibitory effects on human tumor cell lines” (1998).
# Key:
# DU-145 [1] = experiment: The concentration levels of spermine (SP) evaluated in DU145 cells treated with the compound concentration of 10 uM on fifth day of treatment.; type: functional, cell-based; conditions: Homo sapiens
# DU-145 [2] = experiment: The concentration levels of analogue evaluated in DU145 cells treated with the compound concentration of 10 uM on fifth day of treatment.; type: functional, cell-based; conditions: Homo sapiens
# DU-145 [3] = experiment: The concentration levels of analogue evaluated in DU145 cells treated with the compound concentration of 10 uM on third day of treatment.; type: functional, cell-based; conditions: Homo sapiens
# DU-145 [4] = experiment: The concentration levels of putrescine (PU) evaluated in DU145 cells treated with the compound concentration of 10 uM on third day of treatment.; type: functional, cell-based; conditions: Homo sapiens
# MCF7 = experiment: Growth inhibitory activity was measured for human MCF-7 tumor cell line.; type: functional; conditions: read-out: ID50 (the source's name)
# PC-3 = experiment: Growth inhibitory activity was measured for human PC-3 tumor cell line.; type: functional; conditions: Homo sapiens, PC-3; read-out: ID50 (the source's name)
# DU-145 [5] = experiment: The concentration levels of spermidine (SD), evaluated in DU145 cells treated with the compound concentration of 10 uM on third day of treatment.; type: functional, cell-based; conditions: Homo sapiens
# U-251 = experiment: Growth inhibitory activity was measured for human U251MG NCI tumor cell line.; type: functional; conditions: read-out: ID50 (the source's name)
# A549 = experiment: Growth inhibitory activity was measured for human A549 tumor cell line.; type: functional; conditions: Homo sapiens, A549; read-out: ID50 (the source's name)
# HT-29 = experiment: Growth inhibitory activity was measured for human HT-29 tumor cell line.; type: functional; conditions: Homo sapiens, HT-29; read-out: ID50 (the source's name)
# DU-145 [6] = experiment: The concentration levels of putrescine (PU) evaluated in DU145 cells treated with the compound concentration of 10 uM on fifth day of treatment.; type: functional, cell-based; conditions: Homo sapiens
# DU-145 [7] = experiment: The concentration levels of spermidine (SD) evaluated in DU145 cells treated with the compound concentration of 10 uM on fifth day of treatment.; type: functional, cell-based; conditions: Homo sapiens
# DU-145 [8] = experiment: The concentration levels of spermine (SP), evaluated in DU145 cells treated with the compound concentration of 10 uM on third day of treatment.; type: functional, cell-based; conditions: Homo sapiens
# DU-145 [9] = experiment: The concentration levels of putrescine (PU) evaluated for the polyamine and analogue levels in DU145 cells treated with the compound concentration of 0. uM on third day of treatment.; type: functional, cell-based; conditions: Homo sapiens
# DU-145 [10] = experiment: The concentration levels of analogue evaluated for the polyamine and analogue levels in DU145 cells treated with the compound concentration of 0 uM on third day of treatment.; type: functional, cell-based; conditions: Homo sapiens
# DU-145 [11] = experiment: The concentration levels of spermidine (SD) evaluated for the polyamine and analogue levels in DU145 cells treated with the compound concentration of 5 uM on fifth day of treatment.; type: functional, cell-based; conditions: Homo sapiens
# DU-145 [12] = experiment: The concentration levels of spermidine (SD) evaluated for the polyamine and analogue levels in DU145 cells treated with the compound concentration of 0 uM on fifth day of treatment.; type: functional, cell-based; conditions: Homo sapiens
# DU-145 [13] = experiment: The concentration levels of spermidine (SD), evaluated for the polyamine and analogue levels in DU145 cells treated with the compound concentration of 0 uM on third day of treatment.; type: functional, cell-based; conditions: Homo sapiens
# DU-145 [14] = experiment: The concentration levels of putrescine (PU) evaluated for the polyamine and analogue levels in DU145 cells treated with the compound concentration of 5 uM on fifth day of treatment.; type: functional, cell-based; conditions: Homo sapiens
# DU-145 [15] = experiment: The concentration levels of spermidine (SD), evaluated for the polyamine and analogue levels in DU145 cells treated with the compound concentration of 5 uM on third day of treatment.; type: functional, cell-based; conditions: Homo sapiens
# DU-145 [16] = experiment: The concentration levels of analogue evaluated for the polyamine and analogue levels in DU145 cells treated with the compound concentration of 5 uM on fifth day of treatment.; type: functional, cell-based; conditions: Homo sapiens
# DU-145 [17] = experiment: The concentration levels of spermine (SP), evaluated for the polyamine and analogue levels in DU145 cells treated with the compound concentration of 5 uM on fthird day of treatment.; type: functional, cell-based; conditions: Homo sapiens
# DU-145 [18] = experiment: The concentration levels of spermine (SP), evaluated for the polyamine and analogue levels in DU145 cells treated with the compound concentration of 0 uM on third day of treatment.; type: functional, cell-based; conditions: Homo sapiens
# DU-145 [19] = experiment: The concentration levels of analogue evaluated for the polyamine and analogue levels in DU145 cells treated with the compound concentration of 0 uM on fifth day of treatment.; type: functional, cell-based; conditions: Homo sapiens
# DU-145 [20] = experiment: The concentration levels of spermine (SP) evaluated for the polyamine and analogue levels in DU145 cells treated with the compound concentration of 5 uM on fifth day of treatment.; type: functional, cell-based; conditions: Homo sapiens
# DU-145 [21] = experiment: The concentration levels of spermine (SP) evaluated for the polyamine and analogue levels in DU145 cells treated with the compound concentration of 0 uM on fifth day of treatment.; type: functional, cell-based; conditions: Homo sapiens
# DU-145 [22] = experiment: The concentration levels of putrescine (PU) evaluated for the polyamine and analogue levels in DU145 cells treated with the compound concentration of 5 uM on third day of treatment.; type: functional, cell-based; conditions: Homo sapiens
# DU-145 [23] = experiment: The concentration levels of analogue evaluated for the polyamine and analogue levels in DU145 cells treated with the compound concentration of 5 uM on third day of treatment.; type: functional, cell-based; conditions: Homo sapiens
# DU-145 [24] = experiment: The concentration levels of putrescine (PU) evaluated for the polyamine and analogue levels in DU145 cells treated with the compound concentration of 0 uM on fifth day of treatment.; type: functional, cell-based; conditions: Homo sapiens
# DU-145 [25] = experiment: The concentration levels of spermidine (SD), evaluated in DU145 cells treated with the compound concentration of 2 uM on first day of treatment.; type: functional, cell-based; conditions: Homo sapiens
# DU-145 [26] = experiment: The concentration levels of spermine (SP) evaluated in DU145 cells treated with the compound concentration of 0.02 uM on third day of treatment.; type: functional, cell-based; conditions: Homo sapiens
# DU-145 [27] = experiment: The concentration levels of putrescine (PU) evaluated in DU145 cells treated with the compound concentration of 2 uM on third day of treatment.; type: functional, cell-based; conditions: Homo sapiens
# DU-145 [28] = experiment: The concentration levels of spermidine (SD) evaluated in DU145 cells treated with the compound concentration of 0.02 uM on third day of treatment.; type: functional, cell-based; conditions: Homo sapiens
# DU-145 [29] = experiment: The concentration levels of putrescine (PU) evaluated in DU145 cells treated with the compound concentration of 0.02 uM on first day of treatment.; type: functional, cell-based; conditions: Homo sapiens
# DU-145 [30] = experiment: The concentration levels of putrescine (PU) evaluated in DU145 cells treated with the compound concentration of 0.02 uM on third day of treatment.; type: functional, cell-based; conditions: Homo sapiens
# DU-145 [31] = experiment: The concentration levels of analogue evaluated in DU145 cells treated with the compound concentration of 0.02 uM on third day of treatment.; type: functional, cell-based; conditions: Homo sapiens
# DU-145 [32] = experiment: The concentration levels of spermine (SP) evaluated in DU145 cells treated with the compound concentration of 2 uM on third day of treatment.; type: functional, cell-based; conditions: Homo sapiens
# DU-145 [33] = experiment: The concentration levels of analogue evaluated in DU145 cells treated with the compound concentration of 0.02 uM on first day of treatment.; type: functional, cell-based; conditions: Homo sapiens
# DU-145 [34] = experiment: The concentration levels of spermine (SP), evaluated in DU145 cells treated with the compound concentration of 2 uM on first day of treatment.; type: functional, cell-based; conditions: Homo sapiens
# DU-145 [35] = experiment: The concentration levels of putrescine (PU) evaluated in DU145 cells treated with the compound concentration of 2 uM on first day of treatment.; type: functional, cell-based; conditions: Homo sapiens
# DU-145 [36] = experiment: The concentration levels of analogue evaluated in DU145 cells treated with the compound concentration of 2 uM on first day of treatment.; type: functional, cell-based; conditions: Homo sapiens
# DU-145 [37] = experiment: The concentration levels of spermine (SP), evaluated in DU145 cells treated with the compound concentration of 0.02 uM on first day of treatment.; type: functional, cell-based; conditions: Homo sapiens
# DU-145 [38] = experiment: The concentration levels of spermidine (SD) evaluated in DU145 cells treated with the compound concentration of 2 uM on third day of treatment.; type: functional, cell-based; conditions: Homo sapiens
# DU-145 [39] = experiment: The concentration levels of analogue evaluated in DU145 cells treated with the compound concentration of 2 uM on third day of treatment.; type: functional, cell-based; conditions: Homo sapiens
# DU-145 [40] = experiment: The concentration levels of spermidine (SD), evaluated in DU145 cells treated with the compound concentration of 0.02 uM on first day of treatment.; type: functional, cell-based; conditions: Homo sapiens
# DU-145 [41] = experiment: The concentration levels of putrescine (PU) evaluated in DU145 cells treated with the compound concentration of 2 uM on third day of treatment; Not quantifiable; type: functional, cell-based; conditions: Homo sapiens
# DU-145 [42] = experiment: The concentration levels of spermidine (SD) evaluated in DU145 cells treated with the compound concentration of 2 uM on third day of treatment; Not quantifiable; type: functional, cell-based; conditions: Homo sapiens
# DU-145 [43] = experiment: The concentration levels of putrescine (PU) evaluated in DU145 cells treated with the compound concentration of 2 uM on first day of treatment; Not quanitfiable; type: functional, cell-based; conditions: Homo sapiens
IC50 (MCF7),IC50 (PC-3),IC50 (A549),IC50 (HT-29),Structure (SMILES),IC50 (U-251),Concentration (nM (10e6*cells)-1) (DU-145 [25]),Concentration (nM (10e6*cells)-1) (DU-145 [26]),Concentration (nM (10e6*cells)-1) (DU-145 [28]),Concentration (nM (10e6*cells)-1) (DU-145 [29]),Concentration (nM (10e6*cells)-1) (DU-145 [30]),Concentration (nM (10e6*cells)-1) (DU-145 [31]),Concentration (nM (10e6*cells)-1) (DU-145 [32]),Concentration (nM (10e6*cells)-1) (DU-145 [33]),Concentration (nM (10e6*cells)-1) (DU-145 [34]),Concentration (nM (10e6*cells)-1) (DU-145 [36]),Concentration (nM (10e6*cells)-1) (DU-145 [37]),Concentration (nM (10e6*cells)-1) (DU-145 [39]),Concentration (nM (10e6*cells)-1) (DU-145 [40]),further results
> 31.2 µM,> 31.2 µM,> 31.2 µM,> 31.2 µM,CCNCCCNCc1ccccc1CNCCCNCC,> 31.2 µM,–,–,–,–,–,–,–,–,–,–,–,–,–,Concentration (nM (10e6*cells)-1) (DU-145 [1]): 2.13; Concentration (nM (10e6*cells)-1) (DU-145 [2]): 1.25; Concentration (nM (10e6*cells)-1) (DU-145 [3]): 0.82; Concentration (nM (10e6*cells)-1) (DU-145 [4]): 0.12; Concentration (nM (10e6*cells)-1) (DU-145 [5]): 1.5; Concentration (nM (10e6*cells)-1) (DU-145 [6]): 0.06; Concentration (nM (10e6*cells)-1) (DU-145 [7]): 1.84; Concentration (nM (10e6*cells)-1) (DU-145 [8]): 2.7
> 31.2 µM,> 31.2 µM,> 31.2 µM,> 31.2 µM,CCNCCCNCC#CCNCCCNCC,> 31.2 µM,–,–,–,–,–,–,–,–,–,–,–,–,–,Concentration (nM (10e6*cells)-1) (DU-145 [9]): 0.11; Concentration (nM (10e6*cells)-1) (DU-145 [10]): 0.06; Concentration (nM (10e6*cells)-1) (DU-145 [11]): 0.59; Concentration (nM (10e6*cells)-1) (DU-145 [12]): 1.55; Concentration (nM (10e6*cells)-1) (DU-145 [13]): 1.73; Concentration (nM (10e6*cells)-1) (DU-145 [14]): 0.06; Concentration (nM (10e6*cells)-1) (DU-145 [15]): 0.9; Concentration (nM (10e6*cells)-1) (DU-145 [16]): 1.71; Concentration (nM (10e6*cells)-1) (DU-145 [17]): 2.56; Concentration (nM (10e6*cells)-1) (DU-145 [18]): 3.13; Concentration (nM (10e6*cells)-1) (DU-145 [19]): 0.03; Concentration (nM (10e6*cells)-1) (DU-145 [20]): 1.33; Concentration (nM (10e6*cells)-1) (DU-145 [21]): 1.55; Concentration (nM (10e6*cells)-1) (DU-145 [22]): 0.04; Concentration (nM (10e6*cells)-1) (DU-145 [23]): 2.16; Concentration (nM (10e6*cells)-1) (DU-145 [24]): 0.03
–,–,–,–,CCNCCCNCC1CC1CNCCCNCC (stereo in doubt; 5),–,2.63,2.73,1.41,0.2,0.08,0.06,2.28,0.14,2.64,0.33,2.48,0.18,1.92,Concentration (nM (10e6*cells)-1) (DU-145 [27]): 0.05; Concentration (nM (10e6*cells)-1) (DU-145 [35]): 0.55; Concentration (nM (10e6*cells)-1) (DU-145 [38]): 1.38
–,–,–,–,CCNCCCNCC1CC1CNCCCNCC (stereo in doubt; 9),–,0.1,1.97,1.01,0.18,0.05,0.15,0.06,0.9,0.4,4.08,2.16,3.97,1.64,Concentration (DU-145 [41]): Not quantifiable; Concentration (DU-145 [42]): Not quantifiable; Concentration (DU-145 [43]): Not quantifiable
